These molecules were tested against T1, recombinant human FAK1 (Homo sapiens, UniProt Q05397) (assay: FAK1 HTRF assay). Settings: not given.
T1 construct: fused on or other part: N-terminal 6xHis tag
T1 sequence (Q05397 422-680 limits assumed): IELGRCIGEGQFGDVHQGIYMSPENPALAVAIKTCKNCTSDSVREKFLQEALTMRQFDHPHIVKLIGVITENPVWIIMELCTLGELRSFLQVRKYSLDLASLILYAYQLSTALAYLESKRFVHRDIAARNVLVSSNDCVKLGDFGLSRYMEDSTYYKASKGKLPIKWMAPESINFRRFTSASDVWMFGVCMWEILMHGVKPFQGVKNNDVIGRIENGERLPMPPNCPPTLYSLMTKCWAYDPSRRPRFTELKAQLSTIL
Assay type: biochemical
Summary of the method: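 IC50 values derive from HTRF % inhibition (ratio 665/620 nm, Eu–anti-phosphotyrosine 0.1 nM, SA-APC 12 nM). The kinase step ran 45 min at room temperature, pairing 10 nM His-FAK1(692–end) from baculovirus with 0.5 μM gastrin Tyr87 biotin-peptide and a reagent at 10 μM final, pH 7.4. Compound dilutions began at 10 μM.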
CN1CCN(c2ccc(Nc3cc4c(ccn4S(=O)(=O)c4ccccc4C#N)cn3)cc2)CC1 [Example 506] was tested, and the IC50 was < 20 nM.
CN(c1ccccc1Cn1ccc2cnc(Nc3ccc4c(c3)CC3CNCCN43)nc21)S(C)(=O)=O (centres unmarked) [Example 526] was tested, and the IC50 was < 20 nM.
CN(c1ncccc1Cn1ccc2cnc(Nc3ccc4[nH]c(=O)[nH]c4c3)nc21)S(C)(=O)=O [Example 77] was tested, and the IC50 was < 20 nM.
CN(c1ccccc1Cn1ncc2cnc(Nc3ccc4c(c3)CCC(=O)N4)cc21)S(C)(=O)=O [Example 225] was tested, and the IC50 was < 20 nM.
COc1cc(Nc2ncc3ccn(Cc4ccccc4N(C)S(C)(=O)=O)c3n2)ccc1N1CCN(CCO)CC1 [Example 421] was tested, and the IC50 was < 20 nM.
For COc1ccc(N(C)S(C)(=O)=O)c(Cn2ccc3cnc(Nc4ccc(N5CCC(N(C)C)CC5)cc4)nc32)c1 [Example 706], the IC50 was < 20 nM.

What follows are molecules tested against T2, FAK phosphorylated at Y397 in HEK-FAK cell line overexpressing human FL FAK protein (Homo sapiens, UniProt Q05397) (assay: Cell based assay, Phospho-FAK ELISA). Settings: HEK stb; read-out: pFAK EC50 (μM) HEK stb.
T2 construct: expressed in transfected cells
T2 sequence (Q05397 whole entry): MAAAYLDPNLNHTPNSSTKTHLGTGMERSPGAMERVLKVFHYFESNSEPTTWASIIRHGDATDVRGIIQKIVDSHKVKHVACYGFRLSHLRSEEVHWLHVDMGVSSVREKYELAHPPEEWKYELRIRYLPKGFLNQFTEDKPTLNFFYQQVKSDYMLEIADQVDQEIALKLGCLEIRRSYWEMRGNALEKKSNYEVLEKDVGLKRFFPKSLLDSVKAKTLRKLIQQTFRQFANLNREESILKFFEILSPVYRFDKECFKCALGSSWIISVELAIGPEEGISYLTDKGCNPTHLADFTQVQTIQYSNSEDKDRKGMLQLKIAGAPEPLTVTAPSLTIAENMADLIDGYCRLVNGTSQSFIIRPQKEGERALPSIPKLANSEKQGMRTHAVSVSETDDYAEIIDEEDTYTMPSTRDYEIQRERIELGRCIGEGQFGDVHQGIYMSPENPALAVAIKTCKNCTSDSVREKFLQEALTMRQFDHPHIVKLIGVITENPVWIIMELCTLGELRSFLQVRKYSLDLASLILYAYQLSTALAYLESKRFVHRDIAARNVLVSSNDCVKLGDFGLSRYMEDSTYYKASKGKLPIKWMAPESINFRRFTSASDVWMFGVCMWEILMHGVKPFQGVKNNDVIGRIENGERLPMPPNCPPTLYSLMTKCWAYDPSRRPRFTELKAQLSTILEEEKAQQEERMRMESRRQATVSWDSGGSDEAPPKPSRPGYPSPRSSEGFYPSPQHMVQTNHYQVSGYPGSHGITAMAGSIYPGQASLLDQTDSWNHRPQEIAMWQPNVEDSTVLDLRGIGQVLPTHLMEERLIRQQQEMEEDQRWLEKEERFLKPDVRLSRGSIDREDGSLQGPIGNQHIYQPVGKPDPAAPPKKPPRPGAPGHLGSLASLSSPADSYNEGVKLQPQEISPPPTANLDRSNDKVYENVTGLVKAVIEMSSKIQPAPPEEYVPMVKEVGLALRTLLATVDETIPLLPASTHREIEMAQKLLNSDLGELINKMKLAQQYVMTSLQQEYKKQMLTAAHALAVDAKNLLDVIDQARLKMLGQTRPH
From the text: D. Cell Based Assay-Phospho-FAK ELISA
The DuoSet IC ELISA (R&D systems—Cat no. DYC4528-5) provided the basic components required for the development of sandwich ELISAs to measure Focal Adhesion Kinase 1 (FAK) phosphorylated at Y397 in cell lysates. An immobilized capture antibody specific for FAK, also known as PTK2, binds both phosphorylated and unphosphorylated protein. After washing away unbound material, a biotinylated detection antibody specific for FAK phosphorylated at Y397 was used to detect only phosphorylated protein, utilizing a standard Streptavidin-HRP format. The cell line used for the assay was a stable HEK-FAK cell line overexpressing human FL FAK protein, which was generated as follows.
HEK293 cells (ATCC® CRL-1573™, 10801 University Boulevard, Manassas, Va. 20110 USA) were seeded in four 100 mm petri dishes at a seeding density of 1.5×10^6 cells per plate and incubated overnight at 37° C. in a 5% CO2 incubator. The transfection mix was prepared as follows. (A) 10 μg DNA (pCDNA4 V5/HisA vector containing Zeocin as mammalian selection marker, procured from Invitrogen) with the full length human FAK gene represented by the nucleotide sequence provided in NCBI Reference Sequence: NM_153831.3, SEQ ID NO: 1:
was added to 1.5 mL Opti-MEM® (reduced serum media is a modification of Eagle's Minimum Essential Media, buffered with HEPES and sodium bicarbonate and supplemented with hypoxanthine, thymidine, sodium pyruvate, L-glutamine, trace elements and growth factors commercially available from Invitrogen) and incubated at room temperature for 5 minutes. (B) 30 μL Lipofectamine™ Transfection reagent (Life Technologies) was added to 1.5 mL Opti-MEM® and incubated at room temperature for 5 minutes. Following this, (a) and (b) were mixed and incubated at room temperature for 20 minutes. Media was removed from cells and washed with 1× phosphate buffered saline (PBS) and the transfection mix prepared above was mixed with 3 mL of Opti-MEM®, added to the cells and incubated at 37° C. Four hours later, 6 mL of 20% Dulbecco's Modified Eagle Medium (DMEM) was added to the plates and incubated at 37° C. in a 5% CO2 incubator. Approximately 72 hours after transfection, cells were subcultured at various dilutions with fresh medium containing 0.8 mg/mL Zeocin™ (Life Technologies). Cells were replenished with selective medium every 3-4 days until cell foci were identified in the FAK transfected cells and most of the cells died in the control plates. Cells from these foci were grown in the presence of selective media and the expression of FAK was confirmed by Western Blotting. Over expression of FAK in the stably-transfected cells was quantified in the cell-based ELISA assay described below by determining the signal window, with a signal window of 2 or above considered to be robust). The HEK-FAK stable cell line thus was maintained in 0.8 mg/mL Zeocin™ (Life Technologies) and used in cell-based ELISA to assess autophosphorylation of FAK.
(i) Materials • 1. Phospho-FAK (Y397)-Capture Antibody • 2. Phospho-FAK (Y397)-Detection Antibody • 3. Streptavidin-HRP • 4. Cells used for the assay-HEK over expressing human FL FAK protein
(ii) Solutions • PBS—137 mM NaCl, 2.7 mM KCl, 8.1 mM Na2HPO4, 1.5 mM KH2PO4, pH 7.2-7.4, 0.2 μm filtered. • Wash Buffer—0.05% Tween20™ in PBS, pH 7.2-7.4 • Block Buffer—1% BSA, 0.05% NaN3, in PBS, pH 7.2-7.4. • IC Diluent #1-1% BSA in PBS, pH 7.2-7.4, 0.2 μm filtered. • IC Diluent #8-1 mM EDTA, 0.5% Triton™ X-100, 5 mM NaF in PBS, pH 7.2-7.4. IC Diluent #8 was also the base buffer for IC Diluent #3, IC Diluent #7, and Lysis. • Buffer #6. […]
In the case of CN(c1ncccc1Cn1ccc2cnc(Nc3ccc(N4CCNC(CF)C4)cc3)nc21)S(C)(=O)=O (centres unmarked) [Example 737, N-(3-((2-((4-(3-(fluoromethyl)piperazin-1-yl)phenyl)amino)-7H-pyrrolo[2,3-d]pyrimidin-7-yl)methyl)pyridin-2-yl)-N-methylmethanesulfonamide], the EC50 is reported as > 1 µM.
For CN1CCN(c2ccc(Nc3cc4c(ccn4S(=O)(=O)c4ccccc4C#N)cn3)cc2)CC1 [Example 506], the EC50 was > 1 µM.
CN(c1ncccc1Cn1ccc2cnc(Nc3ccc(-c4ccc(=O)[nH]c4)cc3)nc21)S(C)(=O)=O [Example 688] was tested, and the EC50 was > 1 µM.
For CN(c1ncccc1Cn1ccc2cnc(Nc3ccc4c(c3)OCCN4)nc21)S(C)(=O)=O [Example 221], the EC50 was > 1 µM.
For CN(C)C1CCN(c2ccc(Nc3ncc4ccn(Cc5cccnc5N(C)S(C)(=O)=O)c4n3)cc2)CC1 [Example 530], the EC50 was > 1 µM.
For CN(c1ncccc1Cn1ccc2cnc(Nc3ccc4[nH]c(C5CCNCC5)cc4c3)nc21)S(C)(=O)=O [Example 677], the EC50 was > 1 µM.
With CN(c1ncccc1Cn1ccc2cnc(Nc3ccc(OCCN4CCOCC4)cc3)nc21)S(C)(=O)=O [Example 613] the EC50 was > 1 µM.
For CN(C)Cc1ccc(Nc2ncc3ccn(Cc4cccnc4N(C)S(C)(=O)=O)c3n2)cc1 [Example 207], the EC50 was > 1 µM.
In the case of C[C@H](O)CN1CCN(c2ccc(Nc3ncc4ccn(Cc5cccnc5N(C)S(C)(=O)=O)c4n3)cc2)C[C@H]1C [Example 694], the EC50 is reported as > 1 µM.
With CN(c1ncccc1Cn1ccc2cnc(Nc3ccc(N4CCCC(N)C4)cc3)nc21)S(C)(=O)=O (centres unmarked) [Example 776] the EC50 was > 1 µM.
CN(c1ccccc1Cn1ccc2cnc(Nc3ccc4c(c3)CC3CNCCN43)nc21)S(C)(=O)=O (centres unmarked) [Example 526] was tested, and the EC50 was > 1 µM.
In the case of CN(c1ncccc1Cn1ccc2cnc(Nc3ccc4[nH]c(C(=O)N5CCNCC5)cc4c3)nc21)S(C)(=O)=O [Example 696], the EC50 is reported as > 1 µM.
In the case of CN1CCCN(c2ccc(Nc3ncc4ccn(Cc5ccccc5N(C)S(C)(=O)=O)c4n3)cc2)CC1 [Example 520], the EC50 is reported as > 1 µM.
For Cc1ccccc1S(=O)(=O)n1ccc2cnc(Nc3ccc(N4CCNCC4)cc3)nc21 [Example 233], the EC50 was > 1 µM.
For CN(C)C1CCN(c2ccc(Nc3ncc4ccn(Cc5cccnc5N(C)S(C)(=O)=O)c4n3)cc2)C1 (centres unmarked) [Example 589], the EC50 was > 1 µM.
With C[C@H](O)CN1CCN(c2ccc(Nc3ncc4ccn(Cc5cccnc5N(C)S(C)(=O)=O)c4n3)cc2)C[C@@H]1C [Example 663, N-(3-((2-((4-((S)-4-((S)-2-Hydroxypropyl)-3-methylpiperazin-1-yl)phenyl)amino)-7H-pyrrolo[2,3-d]pyrimidin-7-yl)methyl)pyridin-2-yl)-N-methylmethanesulfonamide] the EC50 was > 1 µM.
With CCC1CN(c2ccc(Nc3ncc4ccn(Cc5cccnc5N(C)S(C)(=O)=O)c4n3)cc2)CCN1 (centres unmarked) [Example 645] the EC50 was > 1 µM.
CC1CN(c2ccc(Nc3ncc4ccn(Cc5cccnc5N(C)S(C)(=O)=O)c4n3)cc2)CC(C)N1 (centres unmarked) [Example 522] was tested, and the EC50 was > 1 µM.
In the case of CN(c1ncccc1Cn1ncc2cnc(Nc3ccc(N4CCC(O)CC4)cc3)cc21)S(C)(=O)=O [Example 394], the EC50 is reported as > 1 µM.
For CN(c1ncccc1Cn1ccc2cnc(Nc3ccc4[nH]c(=O)[nH]c4c3)nc21)S(C)(=O)=O [Example 77], the EC50 was > 1 µM.
In the case of C[C@@H]1CN(c2ccc(Nc3ncc4c(n3)N(c3ccccn3)CC4(C)C)cc2)CCN1 [Example 726], the EC50 is reported as > 1 µM.
In the case of CN(c1ccccc1Cn1ccc2cnc(Nc3ccc4c(c3)C(=O)NC4=O)nc21)S(C)(=O)=O [Example 435], the EC50 is reported as > 1 µM.
In the case of CN(C)C1CN(c2ccc(Nc3ncc4ccn(Cc5cccnc5N(C)S(C)(=O)=O)c4n3)cc2)C1 [Example 580], the EC50 is reported as > 1 µM.
CC1(C)CN(S(=O)(=O)c2ccccc2OC(F)F)c2nc(Nc3ccc(N4CCNCC4)cc3)ncc21 [Example 464] was tested, and the EC50 was > 1 µM.
C[C@@H]1CN(c2ccc(Nc3ncc4ccn(Cc5cccnc5N(C)S(C)(=O)=O)c4n3)cc2F)CCN1 [Example 561] was tested, and the EC50 was > 1 µM.
CN(c1ccccc1Cn1ncc2cnc(Nc3ccc4c(c3)CCC(=O)N4)cc21)S(C)(=O)=O [Example 225] was tested, and the EC50 was > 1 µM.
C[C@H]1CN(c2ccc(Nc3ncc4ccn(Cc5ccccc5NS(=O)(=O)CCCF)c4n3)cc2)CCN1 [Example 723] was tested, and the EC50 was > 1 µM.
For O=S(=O)(c1ccccc1Cl)n1ncc2cnc(Nc3ccc(N4CCNCC4)cc3)nc21 [Example 254], the EC50 was > 1 µM.
For CN(c1ccccc1Cn1ccc2cnc(Nc3ccc4[nH]c(C(=O)N5CCNCC5)cc4c3)nc21)S(C)(=O)=O [Example 698], the EC50 was > 1 µM.
For COc1cc(Nc2ncc3ccn(Cc4ccccc4N(C)S(C)(=O)=O)c3n2)ccc1N1CCN(CCO)CC1 [Example 421], the EC50 was > 1 µM.
With C[C@H]1CN(C)CCN1c1ccc(Nc2ncc3ccn(Cc4cccnc4N(C)S(C)(=O)=O)c3n2)cc1 [Example 497] the EC50 was > 1 µM.
For CC(=O)N1CCN(c2ccc(Nc3cc4c(cn3)cnn4S(=O)(=O)c3ccccc3C#N)cc2)CC1 [Example 341], the EC50 was > 1 µM.
With CN(c1ncccc1Cn1ccc2cnc(Nc3ccc(N4CCCNCC4)cc3)nc21)S(C)(=O)=O [Example 549] the EC50 was > 1 µM.
CN(c1ncccc1Cn1ccc2cnc(Nc3ccc(N4CCNC(C)(C)C4=O)cc3)nc21)S(C)(=O)=O [Example 540] was tested, and the EC50 was > 1 µM.
In the case of CN1C(=O)Cc2cc(Nc3ncc4ccn(Cc5cccnc5N(C)S(C)(=O)=O)c4n3)ccc21 [Example 560], the EC50 is reported as > 1 µM.
With COc1ccc(N(C)S(C)(=O)=O)c(Cn2ccc3cnc(Nc4ccc(N5CCC(N(C)C)CC5)cc4)nc32)c1 [Example 706] the EC50 was < 0.02 µM.
In the case of C[C@@H](O)CN1CCN(c2ccc(Nc3ncc4ccn(Cc5cccnc5N(C)S(C)(=O)=O)c4n3)cc2)CC1 [Example 666], the EC50 is reported as > 1 µM.
CN(c1ccccc1Cn1ccc2cnc(Nc3ccc(N4CCNCC4)c(CO)c3)nc21)S(C)(=O)=O [Example 568] was tested, and the EC50 was > 1 µM.
In the case of CN(c1ncccc1Cn1ccc2cnc(Nc3ccc(NC4CCNCC4)cc3)nc21)S(C)(=O)=O [Example 684], the EC50 is reported as > 1 µM.
In the case of COc1c(Nc2ncc3ccn(Cc4ccccc4N(C)S(C)(=O)=O)c3n2)ccc(N2CCNCC2)c1F [Example 456], the EC50 is reported as > 1 µM.
For CN(c1ncccc1Cn1ccc2cnc(Nc3ccc4[nH]ccc4c3)nc21)S(C)(=O)=O [Example 667], the EC50 was > 1 µM.
For CN(c1ncccc1Cn1ccc2cnc(Nc3ccc4c(c3)CC3CNCCN43)nc21)S(C)(=O)=O (centres unmarked) [Example 538], the EC50 was > 1 µM.
With C[C@@H]1CN(c2ccc(Nc3cc4c(ccn4S(=O)(=O)c4ccccc4C#N)cn3)cc2)CCN1 [Example 537] the EC50 was > 1 µM.
For CN(c1ncccc1Cn1ccc2cnc(Nc3ccc(N4CC5CC4CN5)cc3)nc21)S(C)(=O)=O (centres unmarked) [Example 372], the EC50 was > 1 µM.
In the case of O=S(=O)(c1cccc(Cl)c1)n1ncc2cnc(Nc3ccc(N4CCNCC4)cc3)cc21 [Example 308], the EC50 is reported as > 1 µM.

Same assay, conditions: HEK stb; read-out: pFAK EC50 HEK stb
For CNC(=O)c1ccc(Nc2ncc3ccn(Cc4cccnc4N(C)S(C)(=O)=O)c3n2)cc1 [Example 982], the EC50 was > 1 µM.
For Cc1cc(Nc2ncc3ccn(Cc4cccnc4N(C)S(C)(=O)=O)c3n2)ccc1C1CCN(CCO)CC1 [Example 887], the EC50 was > 1 µM.
